According to patent publication US8309577B2, “Quinuclidine compounds as α-7 nicotinic acetylcholine receptor ligands” (Bristol-Myers Squibb Company, priority 2008, dated 2012):

Target: T1, α-7 nicotinic acetylcholine receptor channel expressed in HEK 293 cells (Rattus norvegicus, UniProt Q05941)
T1 construct: expressed in transfected cells
Assay: Ca2+-sensitive fluorescence-based FLIPR assay, α7 nicotinic ACh receptor channel function (agonist)
Format: cell-based
Details: FLIPR α7 activity rating (EC50, nM), Table 1; HEK 293 cells, agonist Ca2+ flux
Outline: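 Potency and efficacy derived from kinetic FLIPR Ca²⁺-flux fluorescence, recorded 3 min after compound addition in Hanks buffer following a 10 s baseline.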

T1 sequence (Q05941 23-502): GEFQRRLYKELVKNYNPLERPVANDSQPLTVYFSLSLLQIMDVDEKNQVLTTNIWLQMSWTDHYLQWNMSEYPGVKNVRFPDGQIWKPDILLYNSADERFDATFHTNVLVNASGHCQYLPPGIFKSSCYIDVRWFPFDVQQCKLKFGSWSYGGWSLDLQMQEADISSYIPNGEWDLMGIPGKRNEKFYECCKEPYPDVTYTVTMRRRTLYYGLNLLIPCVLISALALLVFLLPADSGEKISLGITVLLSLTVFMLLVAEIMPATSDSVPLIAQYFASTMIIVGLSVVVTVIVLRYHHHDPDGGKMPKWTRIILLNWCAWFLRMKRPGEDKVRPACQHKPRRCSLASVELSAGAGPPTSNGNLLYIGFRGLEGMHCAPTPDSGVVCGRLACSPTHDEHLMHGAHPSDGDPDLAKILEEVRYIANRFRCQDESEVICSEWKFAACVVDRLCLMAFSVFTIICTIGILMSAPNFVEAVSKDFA

First: c1nc(NC2=NC[C@@]3(CN4CCC3CC4)O2)ncc1OC1CCCC1 [Example 219, (R)—N-(5-(Cyclopentyloxy)pyrimidin-2-yl)-4H-1′-azaspiro[oxazole-5,3′-bicyclo[2.2.2]octan]-2-amine]
Second: c1nc(NC2=NC[C@@]3(CN4CCC3CC4)O2)cc(OC2CCCC2)n1 [Example 231, (R)—N-(6-(Cyclopentyloxy)pyrimidin-4-yl)-4H-1′-azaspiro[oxazole-5,3′-bicyclo[2.2.2]octan]-2-amine]
The EC50 of the first is higher: 1000 to 100000 nM for the first, 100 to 1000 nM for the second. The second is the more potent here.

`CC(C)c1cc2c(NC3=NC[C@@]4(CN5CCC4CC5)O3)ncnc2s1` [Example 223] and `CC(C)Oc1cc(NC2=NC[C@@]3(CN4CCC3CC4)O2)ncn1` [Example 232, (R)—N-(6-Isopropoxypyrimidin-4-yl)-4H-1′-azaspiro[oxazole-5,3′-bicyclo[2.2.2]octan]-2-amine] fall in the same range of EC50: 100 to 1000 nM for the first, 100 to 1000 nM for the second.

Compared with `CCc1cnc(NC2=NC[C@@]3(CN4CCC3CC4)O2)nc1` [Example 227], `CCc1nnc(NC2=NC[C@@]3(CN4CCC3CC4)O2)o1` [Example 266, (R)—N-(5-Ethyl-1,3,4-oxadiazol-2-yl)-4H-1′-azaspiro[oxazole-5,3′-bicyclo[2.2.2]octan]-2-amine] is higher in EC50: 100 to 1000 nM for the first, 1000 to 100000 nM for the second.

`FC(F)(F)COc1cc(NC2=NC[C@@]3(CN4CCC3CC4)O2)ncn1` [Example 228, (R)—N-(6-(2,2,2-Trifluoroethoxy)pyrimidin-4-yl)-4H-1′-azaspiro[oxazole-5,3′-bicyclo[2.2.2]octan]-2-amine] and `CSc1cc(NC2=NC[C@@]3(CN4CCC3CC4)O2)ncn1` [Example 261, (R)—N-(6-(Methylthio)pyrimidin-4-yl)-4H-1′-azaspiro[oxazole-5,3′-bicyclo[2.2.2]octan]-2-amine] cannot be ordered by EC50: under 100 nM for the first, under 100 nM for the second.

`CC(C)c1nc(NC2=NC[C@@]3(CN4CCC3CC4)O2)ncc1Br` [Example 229, (R)—N-(5-Bromo-4-isopropylpyrimidin-2-yl)-4H-1′-azaspiro[oxazole-5,3′-bicyclo[2.2.2]octan]-2-amine] and `Brc1cnc(NC2=NC[C@@]3(CN4CCC3CC4)O2)nc1-c1cccnc1` [Example 230, (R)—N-(5-Bromo-4-(pyridin-3-yl)pyrimidin-2-yl)-4H-1′-azaspiro[oxazole-5,3′-bicyclo[2.2.2]octan]-2-amine] cannot be ordered by EC50: under 100 nM for the first, under 100 nM for the second.

First: c1cc(NC2=NC[C@@]3(CN4CCC3CC4)O2)ccn1 [Example 235, (R)—N-(Pyridin-4-yl)-4H-1′-azaspiro[oxazole-5,3′-bicyclo[2.2.2]octan]-2-amine]
Second: c1cc(-c2cc(NC3=NC[C@@]4(CN5CCC4CC5)O3)ncn2)ccn1 [Example 246, (R)—N-(6-(Pyridin-4-yl)pyrimidin-4-yl)-4H-1′-azaspiro[oxazole-5,3′-bicyclo[2.2.2]octan]-2-amine]
The EC50 of the first is higher: 1000 to 100000 nM for the first, under 100 nM for the second.

Compared with `c1ccc(COc2ccc3nc(NC4=NC[C@@]5(CN6CCC5CC6)O4)sc3n2)cc1` [Example 236, (R)—N-(5-(Benzyloxy)thiazolo[5,4-b]pyridin-2-yl)-4H-1′-azaspiro[oxazole-5,3′-bicyclo[2.2.2]octan]-2-amine], `Clc1ccc2nc(NC3=NC[C@@]4(CN5CCC4CC5)O3)sc2n1` [Example 268, (R)—N-(5-chlorothiazolo[5,4-b]pyridin-2-yl)-4H-1′-azaspiro[oxazole-5,3′bicyclo[2.2.2]octan]-2-amine] is lower in EC50: 1000 to 100000 nM for the first, under 100 nM for the second. The second is the more potent here.

Compared with `O=c1ccc2nc(NC3=NC[C@@]4(CN5CCC4CC5)O3)sc2[nH]1` [Example 237, (R)-2-(4H-1′-azaspiro[oxazole-5,3′-bicyclo[2.2.2]octane]-2-ylamino)thiazolo[5,4-b]pyridin-5(4H)-one], `CN(C)c1ncc2nc(NC3=NC[C@@]4(CN5CCC4CC5)O3)sc2n1` [Example 269, (R)—N^5,N^5-dimethyl-N^2-(4H-1′-azaspiro[oxazole-5,3′-bicyclo[2.2.2]octane]-2-yl)thiazolo[5,4-d]pyrimidine-2,5-diamine] is higher in EC50: under 100 nM for the first, 1000 to 100000 nM for the second.

First: c1ccc(Oc2cc(NC3=NC[C@@]4(CN5CCC4CC5)O3)ncn2)cc1 [Example 240, (R)—N-(6-Phenoxypyrimidin-4-yl)-4H-1′-azaspiro[oxazole-5,3′-bicyclo[2.2.2]octan]-2-amine]
Second: c1cncc(-c2cc(NC3=NC[C@@]4(CN5CCC4CC5)O3)ncn2)c1 [Example 244, (R)—N-(6-(Pyridin-3-yl)pyrimidin-4-yl)-4H-1′-azaspiro[oxazole-5,3′-bicyclo[2.2.2]octan]-2-amine]
The EC50 of the first is higher: 100 to 1000 nM for the first, under 100 nM for the second.

`COc1ccc2ncc(NC3=NC[C@@]4(CN5CCC4CC5)O3)nc2c1` [Example 241, (R)—N-(7-methoxyquinoxalin-2-yl)-4H-1′-azaspiro[oxazole-5,3′-bicyclo[2.2.2]octan]-2-amine] and `Cc1ccc2ncc(NC3=NC[C@@]4(CN5CCC4CC5)O3)nc2c1` [Example 243, (R)—N-(7-Methylquinoxalin-2-yl)-4H-1′-azaspiro[oxazole-5,3′-bicyclo[2.2.2]octan]-2-amine] fall in the same range of EC50: 1000 to 100000 nM for the first, 1000 to 100000 nM for the second.

First: Cc1ccc2nc(NC3=NC[C@@]4(CN5CCC4CC5)O3)cnc2c1 [Example 242, (R)—N-(6-Methylquinoxalin-2-yl)-4H-1′-azaspiro[oxazole-5,3′-bicyclo[2.2.2]octan]-2-amine]
Second: Cc1cc(NC2=NC[C@@]3(CN4CCC3CC4)O2)ncc1Cl [Example 253, (R)—N-(5-Chloro-4-methylpyridin-2-yl)-4H-1′-azaspiro[oxazole-5,3′-bicyclo[2.2.2]octan]-2-amine]
The EC50 of the first is higher: 100 to 1000 nM for the first, under 100 nM for the second. The second is the more potent here.

`COc1ncc(-c2cc(NC3=NC[C@@]4(CN5CCC4CC5)O3)ncn2)cn1` [Example 245, (R)—N-(2′-Methoxy-4,5′-bipyrimidin-6-yl)-4H-1′-azaspiro[oxazole-5,3′-bicyclo[2.2.2]octan]-2-amine] and `Clc1ccc(-c2cc(NC3=NC[C@@]4(CN5CCC4CC5)O3)ncn2)cc1` [Example 256, (R)—N-(6-(4-Chlorophenyl)pyrimidin-4-yl)-4H-1′-azaspiro[oxazole-5,3′-bicyclo[2.2.2]octan]-2-amine] cannot be ordered by EC50: under 100 nM for the first, under 100 nM for the second.

First: Cc1nc(NC2=NC[C@@]3(CN4CCC3CC4)O2)ccc1C#N [Example 247, (R)-6-(4H-1′-Azaspiro[oxazole-5,3′-bicyclo[2.2.2]octane]-2-ylamino)-2-methylnicotinonitrile]
Second: Clc1ccc(NC2=NC[C@@]3(CN4CCC3CC4)O2)nc1Cl [Example 251, (R)—N-(5,6-Dichloropyridin-2-yl)-4H-1′-azaspiro[oxazole-5,3′-bicyclo[2.2.2]octan]-2-amine]
The EC50 of the first is higher: 100 to 1000 nM for the first, under 100 nM for the second. The second is the more potent here.

First: Cc1cc(NC2=NC[C@@]3(CN4CCC3CC4)O2)nc(C)c1C#N [Example 248, (R)-6-(4H-1′-Azaspiro[oxazole-5,3′-bicyclo[2.2.2]octane]-2-ylamino)-2,4-dimethylnicotinonitrile]
Second: Clc1cnc(NC2=NC[C@@]3(CN4CCC3CC4)O2)cc1Cl [Example 252, (R)—N-(4,5-Dichloropyridin-2-yl)-4H-1′-azaspiro[oxazole-5,3′-bicyclo[2.2.2]octan]-2-amine]
The EC50 of the first is higher: 100 to 1000 nM for the first, under 100 nM for the second.

Compared with `c1ccc(-c2ccc(NC3=NC[C@@]4(CN5CCC4CC5)O3)nn2)cc1` [Example 249, (R)—N-(6-Phenylpyridazin-3-yl)-4H-1′-azaspiro[oxazole-5,3′-bicyclo[2.2.2]octan]-2-amine], `Clc1ccc(NC2=NC[C@@]3(CN4CCC3CC4)O2)nn1` [Example 254, (R)—N-(6-Chloropyridazin-3-yl)-4H-1′-azaspiro[oxazole-5,3′-bicyclo[2.2.2]octan]-2-amine] is lower in EC50: 1000 to 100000 nM for the first, 100 to 1000 nM for the second.

First: Brc1ccc(NC2=NC[C@@]3(CN4CCC3CC4)O2)nn1 [Example 255, (R)—N-(6-Bromopyridazin-3-yl)-4H-1′-azaspiro[oxazole-5,3′-bicyclo[2.2.2]octan]-2-amine]
Second: c1ccn2c(NC3=NC[C@@]4(CN5CCC4CC5)O3)nnc2c1 [Example 262, (R)—N-([1,2,4]Triazol[4,3-a]pyridine-3-yl)-4H-1′-azaspiro[oxazole-5,3′-bicyclo[2.2.2]octan]-2-amine]
The EC50 of the first is lower: 100 to 1000 nM for the first, 1000 to 100000 nM for the second. The first is the more potent here.

`Clc1cccc(-c2cc(NC3=NC[C@@]4(CN5CCC4CC5)O3)ncn2)c1` [Example 257, (R)—N-(6-(3-Chlorophenyl)pyrimidin-4-yl)-4H-1′-azaspiro[oxazole-5,3′-bicyclo[2.2.2]octan]-2-amine] and `Clc1cnc(NC2=NC[C@@]3(CN4CCC3CC4)O2)c(Cl)c1` [Example 267, (R)—N-(3,5-Dichloropyridin-2-yl)-4H-1′-azaspiro[oxazole-5,3′-bicyclo[2.2.2]octan]-2-amine] cannot be ordered by EC50: under 100 nM for the first, under 100 nM for the second.

Compared with `Cc1nnc(NC2=NC[C@@]3(CN4CCC3CC4)O2)o1` [Example 258, (R)—N-(5-Methyl-1,3,4-oxadiazol-2-yl)-4H-1′-azaspiro[oxazole-5,3′-bicyclo[2.2.2]octan]-2-amine], `Cc1noc(NC2=NC[C@@]3(CN4CCC3CC4)O2)n1` [Example 260, (R)—N-(3-Methyl-1,2,4-oxadiazol-5-yl)-4H-1′-azaspiro[oxazole-5,3′-bicyclo[2.2.2]octan]-2-amine] is lower in EC50: 1000 to 100000 nM for the first, 100 to 1000 nM for the second.

First: Cc1nsc(NC2=NC[C@@]3(CN4CCC3CC4)O2)n1 [Example 259, (R)—N-(3-Methyl-1,2,4-thiadiazol-5-yl)-4H-1′-azaspiro[oxazole-5,3′-bicyclo[2.2.2]octan]-2-amine]
Second: COc1ncc2nc(NC3=NC[C@@]4(CN5CCC4CC5)O3)sc2n1 [Example 265, (R)—N-(5-Methoxythiazolo[5,4-d]pyrimidin-2-yl)-4H-1′-azaspiro[oxazole-5,3′-bicyclo[2.2.2]octan]-2-amine]
The EC50 of the first is higher: 1000 to 100000 nM for the first, under 100 nM for the second.

First: Brc1cnc2nc(NC3=NC[C@@]4(CN5CCC4CC5)O3)sc2n1 [Example 263, (R)—N-(6-bromothiazolo[5,4-b]pyrazin-2-yl)-4H-1′-azaspiro[oxazole-5,3′-bicyclo[2.2.2]octan]-2-amine]
Second: CSc1cnc2nc(NC3=NC[C@@]4(CN5CCC4CC5)O3)sc2n1 [Example 264, (R)—N-(6-(methylthio)thiazolo[5,4-h]pyrazin-2-yl)-4H-1′-azaspiro[oxazole-5,3′-bicyclo[2.2.2]octan]-2-amine]
The EC50 of the first is lower: under 100 nM for the first, 100 to 1000 nM for the second.
